Test results as given in ChEMBL document CHEMBL1201862, “PubChem BioAssay data set” (2004).
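These data come from cells grown in 96-well plates and exposed to compound for 48 hours at five concentrations. GI50 = concentration required for 50% inhibition of growth.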 The source made the active and inactive calls. No stated cut-off is given here; in the data, active = GI50 up to about 1.1 µM and inactive = higher.

Experiments:
Experiment in all cases: DTP human tumour cell line panel, 48 h
A498 = system: A498
CAKI-1 = system: CAKI-1
DU-145 = system: DU-145
HCT-15 = system: HCT-15
HOP-92 = system: HOP-92
K562 = system: K562
KM12 = system: KM12
M14 = system: M14
MOLT-4 = system: MOLT-4
NCI-H226 = system: NCI-H226
NCI-H460 = system: NCI-H460
NCI-H522 = system: NCI-H522
NCI/ADR-RES = system: NCI/ADR-RES
OVCAR-5 = system: OVCAR-5
SF-295 = system: SF-295
SK-MEL-5 = system: SK-MEL-5
UACC-257 = system: UACC-257
UACC-62 = system: UACC-62
UO-31 = system: UO-31
HL-60 = system: HL-60

Compound | GI50 (A498) | GI50 (CAKI-1) | GI50 (DU-145) | GI50 (HCT-15) | GI50 (HOP-92) | GI50 (K562) | GI50 (KM12) | GI50 (M14) | GI50 (MOLT-4) | GI50 (NCI-H226) | GI50 (NCI-H460) | GI50 (NCI-H522) | GI50 (NCI/ADR-RES) | GI50 (OVCAR-5) | GI50 (SF-295) | GI50 (SK-MEL-5) | GI50 (UACC-257) | GI50 (UACC-62) | GI50 (UO-31) | GI50 (HL-60)
NS(=O)(=O)c1nnc(NC(=O)C23CC4CC(CC(C4)C2)C3)s1 | > 100 µM (inactive) | > 100 µM (inactive) | > 100 µM (inactive) | > 100 µM | > 100 µM (inactive) | > 100 µM (inactive) | > 100 µM (inactive) | > 100 µM (inactive) | > 100 µM (inactive) | > 100 µM (inactive) | 60.1 µM (inactive) | 68.2 µM (inactive) | > 100 µM (inactive) | > 100 µM (inactive) | > 100 µM (inactive) | 96.2 µM (inactive) | > 100 µM (inactive) | > 100 µM (inactive) | > 100 µM (inactive) | –
CC(C)(CO[C@H]1C[C@H]2CC[C@@]1(C)C2(C)C)[N+](=O)[O-] | 22.7 µM (inactive) | 20 µM (inactive) | 17.3 µM (inactive) | 22.6 µM | 14.6 µM (inactive) | 13.9 µM (inactive) | 17.4 µM (inactive) | 13.3 µM (inactive) | 18.1 µM (inactive) | 16.1 µM (inactive) | 19.6 µM (inactive) | 20.4 µM (inactive) | 27.9 µM (inactive) | 16.8 µM (inactive) | 18.6 µM (inactive) | 17.3 µM (inactive) | 18.5 µM (inactive) | 19.9 µM (inactive) | 12.5 µM (inactive) | 0.0363 µM (active)
Clc1ccccc1C(Nc1ncccn1)Nc1ncccn1 | > 100 µM (inactive) | > 100 µM (inactive) | > 100 µM (inactive) | > 100 µM | > 100 µM (inactive) | > 100 µM (inactive) | > 100 µM (inactive) | > 100 µM (inactive) | > 100 µM (inactive) | > 100 µM (inactive) | > 100 µM (inactive) | > 100 µM (inactive) | > 100 µM (inactive) | > 100 µM (inactive) | > 100 µM (inactive) | > 100 µM (inactive) | > 100 µM (inactive) | > 100 µM (inactive) | > 100 µM (inactive) | > 100 µM (inactive)
COc1ccc(CSC2=C(C#N)C(=O)NC3(CCCCC3)S2)cc1 | > 63.5 µM (inactive) | 77.6 µM (inactive) | > 85.7 µM (inactive) | 57.8 µM | > 55.7 µM (inactive) | > 50 µM (inactive) | – | 42.2 µM (inactive) | 36.9 µM (inactive) | > 100 µM (inactive) | 69 µM (inactive) | 24.2 µM (inactive) | 49.7 µM (inactive) | > 100 µM (inactive) | 51.6 µM (inactive) | 42.5 µM (inactive) | > 81.7 µM (inactive) | 61.4 µM (inactive) | 96.4 µM (inactive) | 3.63 µM (inactive)
COc1ccc(CCN2C(=O)C=CC2=O)cc1OC | 16.7 µM (inactive) | 13.3 µM (inactive) | 16.5 µM (inactive) | 1.87 µM | 15.4 µM (inactive) | 2.59 µM (inactive) | 19.6 µM (inactive) | 9.84 µM (inactive) | 2.43 µM (inactive) | 5.62 µM (inactive) | 21.5 µM (inactive) | 1.52 µM (inactive) | 25.4 µM (inactive) | 18.4 µM (inactive) | 17.7 µM (inactive) | 17.3 µM (inactive) | 16.8 µM (inactive) | 17.3 µM (inactive) | 1.63 µM (inactive) | 8.39 µM (inactive)
C[C@]12CC[C@H]3[C@@H](CCC4=C(Br)C(=O)C=C[C@@]43O)[C@@H]1CCC2=O | 49.2 µM (inactive) | 31.6 µM (inactive) | 20.9 µM (inactive) | 15.6 µM | 32.2 µM (inactive) | 32.7 µM (inactive) | 34.2 µM (inactive) | 39.3 µM (inactive) | 25.2 µM (inactive) | > 100 µM (inactive) | 23.5 µM (inactive) | 13 µM (inactive) | 27.2 µM (inactive) | 61 µM (inactive) | 74.1 µM (inactive) | 28.2 µM (inactive) | 16.9 µM (inactive) | 32.4 µM (inactive) | 42.2 µM (inactive) | 21.2 µM (inactive)
O=C(N/N=C(COc1cccc(Cl)c1)\N=C\c1ccncc1)c1ccncc1 | 68.9 µM (inactive) | > 100 µM (inactive) | > 100 µM (inactive) | > 100 µM | 35.6 µM (inactive) | > 100 µM (inactive) | > 100 µM (inactive) | > 100 µM (inactive) | > 100 µM (inactive) | > 100 µM (inactive) | > 100 µM (inactive) | > 100 µM (inactive) | > 100 µM (inactive) | > 100 µM (inactive) | > 100 µM (inactive) | – | > 100 µM (inactive) | > 100 µM (inactive) | – | > 100 µM (inactive)
